Laboratory results taken from patent publication US8765107B2, “Process for straightening keratin fibres with a heating means and denaturing agents” (L'Oreal, priority 2006, dated 2014).

Test: hair relaxing with resorcinol under the conditions of M. Wong et al.
Settings: resorcinol at a concentration of 40% and at a pH of 7
Text: The use of resorcinol at a concentration of 40% and at a pH of 7 for relaxing the hair has been reported by M. Wong et al.: M. Wong, G. Vis-surel, and J. Epps J. Soc. Cosmet. Chem. (1994), 45, 347-352.

SMILES: Oc1cccc(O)c1 [resorcinol]
- relaxing of the hair: do not relax it, but lead, at the very best, to slight uncurling
